Reference: US9878982B2, “Pyridine derivatives and anti-mycobacterial use thereof” (priority 2014, dated 2018)
Converted amounts (≈) assume the structure as drawn. Like-named read-outs stand apart in the source and are kept apart here.

Legend:
[1] = system: M. tuberculosis H37R; assay: microbe, parasite or virus in culture; type: cell-based, Mycobacterium tuberculosis; conditions: Mycobacterium tuberculosis, H37R; read-out: M. tuberculosis H37R LORA (MIC)
[2] = system: Mycobacterium smegmatis strain ATCC19420; assay: In vitro efficacy test using Mycobacterium smegmatis strain ATCC19420 (MIC); type: cell-based; conditions: Mycolicibacterium smegmatis, ATCC19420, 72 h, CA-MHB + 0.02% Tween 80, 30° C., read after 72 hours
[3] = system: M. tuberculosis H37Rv; assay: In vitro efficacy test using the H37Rv strain, Microplate Alamar Blue Assay (MABA) MIC; type: cell-based, Mycobacterium tuberculosis; conditions: for MIC: Mycobacterium tuberculosis, H37RV
[4] = system: Vero Cell; assay: Vero cell cytotoxicity (IC50); type: cell-based; conditions: Chlorocebus sabaeus, Vero, African green monkey kidney cells
[5] = Hela cell cytotoxicity (CC50); conditions: human, HeLa cells (human cervical cancer cells), CC50_Hela, half of the toxic concentration
[6] = aerobic, 7H9 medium, Alamar Blue, read-out: M. tuberculosis H37Rv MABA (MIC)
[7] = wild-type H37Rv strain, two values per compound, read-out: MABA MIC vs. H37Rv

## COc1ncc(-c2ccccc2Br)cc1C(c1ccccc1)C(O)(CCN(C)C)c1cccc2ccccc12 (centres unmarked) [Compound 125, 1-(5-(2-bromophenyl)-2-methoxypyridin-3-yl)-4-(dimethylamino)-2-(naphthalen-1-yl)-1-phenylbutan-2-ol]
[1]
  MIC: 1.89 µg/mL (≈ 3.25 µM)
[2]
  MIC: 0.5 µg/mL
[3]; [6]
  MIC: 1.84 µg/mL
[4]
  IC50: > 32 µg/mL
[5]
  CC50: > 64 µg/mL

## COc1ncc(-c2ccccc2)cc1C(c1ccc(F)cc1)C(O)(CCN(C)C)c1ccccc1 (centres unmarked) [Compound 70, 4-(dimethylamino)-1-(4-fluorophenyl)-1-(2-methoxy-5-phenylpyridin-3-yl)-2-phenylbutan-2-ol]
[1]
  MIC: 1.33 µg/mL (≈ 2.83 µM)
[2]
  MIC: 0.125 µg/mL
[3]; [6]
  MIC: 1.49 µg/mL
[4]
  IC50: > 50 µg/mL
[5]
  CC50: 13.7 µg/mL (≈ 29.1 µM)

## COc1ncc(C(C)C)cc1C(c1ccccc1)C(O)(CCN(C)C)c1cccc2ccccc12 (centres unmarked) [Compound 175, 4-(dimethylamino)-1-(5-isopropyl-2-methoxypyridin-3-yl)-2-(naphthalen-1-yl)-1-phenylbutan-2-ol]
[1]
  MIC: 2.83 µg/mL (≈ 6.04 µM)
[2]
  MIC: 0.25 µg/mL
[3]; [6]
  MIC: 1.42 µg/mL
[4]
  IC50: > 50 µg/mL
[5]
  CC50: 27.6 µg/mL (≈ 59 µM)

## COc1ncc(-c2cccc(Br)c2)cc1C(c1ccccc1)C(O)(CCN(C)C)c1cccc2ccccc12 (centres unmarked) [Compound 129, 1-(5-(3-bromophenyl)-2-methoxypyridin-3-yl)-4-(dimethylamino)-2-(naphthalen-1-yl)-1-phenylbutan-2-ol]
[1]
  MIC: 2.57 µg/mL (≈ 4.42 µM)
[2]
  MIC: 0.5 µg/mL
[3]; [6]
  MIC: 1.88 µg/mL
[4]
  IC50: > 32 µg/mL
[5]
  CC50: > 64 µg/mL

## COc1ncc(C(C)(C)C)cc1C(c1ccccc1)C(O)(CCN(C)C)c1cccc2ccccc12 (centres unmarked) [Compound 177, 1-(5-tert-butyl-2-methoxypyridin-3-yl)-4-dimethylamino-2-(naphthalen-1-yl)-1-phenylbutan-2-ol]
[1]
  MIC: 1.81 µg/mL (≈ 3.75 µM)
[2]
  MIC: 0.125 µg/mL
[3]; [6]
  MIC: 1.74 µg/mL
[4]
  IC50: 27.6 µg/mL (≈ 57.2 µM)
[5]
  CC50: > 64 µg/mL

## COc1cccc(C(c2cc(-c3ccc(Cl)cc3)cnc2OC)C(O)(CCN(C)C)c2cc(Cl)cc(Cl)c2)c1OC (single isomer, unassigned) [Compound 395, 1-(5-(4-chlorophenyl)-2-methoxypyridin-3-yl)-2-(3,5-dichlorophenyl)-1-(2,3-dimethoxyphenyl)-4-(dimethylamino)butan-2-ol]
[1]
  MIC: < 0.125 µg/mL
[2]
  MIC: 0.039 µg/mL
[3]; [6]
  MIC: 0.031 µg/mL
[4]
  IC50: > 32 µg/mL
[5]
  CC50: > 64 µg/mL

## COc1ncc(-c2ccccc2)cc1C(c1ccccc1)C(O)(CCN(C)C)c1cc(F)cc(F)c1 (centres unmarked) [Compound 35, 2-(3,5-difluorophenyl)-4-(dimethylamino)-1-(2-methoxy-5-phenylpyridin-3-yl)-1-phenylbutan-2-ol]
[1]
  MIC: 0.37 µg/mL (≈ 0.757 µM)
[2]
  MIC: ≤ 0.0625 µg/mL
[3]; [6]
  MIC: 0.73 µg/mL
[4]
  IC50: > 50 µg/mL
[5]
  CC50: 28.9 µg/mL (≈ 59 µM)

## COc1ncc(-c2ccc(Br)cc2)cc1C(c1ccc(Cl)cc1)C(O)(CCN(C)C)c1cccc2ccccc12 (centres unmarked) [Compound 325, 1-(5-(4-bromophenyl)-2-methoxypyridin-3-yl)-1-(4-chlorophenyl)-4-dimethylamino-2-(naphthalen-1-yl)butan-2-ol]
[1]
  MIC: 0.125 µg/mL (≈ 0.203 µM)
[2]
  MIC: 0.0312 µg/mL
[3]; [6]
  MIC: 0.04 µg/mL
[4]
  IC50: > 32 µg/mL
[5]
  CC50: > 64 µg/mL

## COc1ncc(-c2ccoc2)cc1C(c1ccccc1)C(O)(CCN(C)C)c1cccc2ccccc12 (centres unmarked) [Compound 178, 4-(dimethylamino)-1-(5-(furan-3-yl)-2-methoxypyridin-3-yl)-2-(naphthalen-1-yl)-1-phenylbutan-2-ol]
[1]
  MIC: 0.88 µg/mL (≈ 1.79 µM)
[2]
  MIC: 0.0312 µg/mL
[3]; [6]
  MIC: 0.78 µg/mL
[4]
  IC50: 25.5 µg/mL (≈ 51.8 µM)
[5]
  CC50: 25.8 µg/mL (≈ 52.3 µM)

## COc1ncc(-c2ccsc2Cl)cc1C(c1ccccc1)C(O)(CCN(C)C)c1cccc2ccccc12 (centres unmarked) [Compound 251, 1-(5-(2-chlorothiophen-3-yl)-2-methoxypyridin-3-yl)-4-(dimethylamino)-2-(naphthalen-1-yl)-1-phenylbutan-2-ol]
[1]
  MIC: 1.39 µg/mL (≈ 2.56 µM)
[2]
  MIC: 0.25 µg/mL
[3]; [6]
  MIC: 0.64 µg/mL
[4]
  IC50: > 32 µg/mL
[5]
  CC50: > 64 µg/mL

## COc1ncc(-c2ccc(Cl)cc2)cc1C(c1ccccc1)C(O)(CCN(C)C)c1cccc2ccccc12 (centres unmarked) [Compound 115, 1-(5-(4-chlorophenyl)-2-methoxypyridin-3-yl)-4-(dimethylamino)-2-(naphthalen-1-yl)-1-phenylbutan-2-ol]
[1]
  MIC: 0.56 µg/mL (≈ 1.04 µM)
[2]
  MIC: 0.0156 µg/mL
[3]
  inhibitory activity against M. tuberculosis H37Rv, aerobic (MABA) (in words): comparable to that of the marketed anti-TB drug, Bedaquiline
[3]; [6]
  MIC: 0.08 µg/mL
[3]; [7]
  MIC: 0.06 µM
[4]
  IC50: > 50 µg/mL
[5]
  CC50: > 64 µg/mL

## COc1ncc(-c2ccsn2)cc1C(c1ccccc1)C(O)(CCN(C)C)c1cccc2ccccc12 (centres unmarked) [Compound 145, 4-(dimethylamino)-1-(5-(isothiazol-3-yl)-2-methoxypyridin-3-yl)-2-(naphthalen-1-yl)-1-phenylbutan-2-ol]
[1]
  MIC: 1.57 µg/mL (≈ 3.08 µM)
[2]
  MIC: 0.0625 µg/mL
[3]; [6]
  MIC: 0.97 µg/mL
[4]
  IC50: 25.1 µg/mL (≈ 49.2 µM)
[5]
  CC50: 12.7 µg/mL (≈ 24.8 µM)

## COc1cccc(C(c2cc(-c3ccccc3)cnc2OC)C(O)(CCN(C)C)c2cc(F)cc(F)c2)c1OC (centres unmarked) [Compound 207, 2-(3,5-difluorophenyl)-1-(2,3-dimethoxyphenyl)-4-(dimethylamino)-1-(2-methoxy-5-phenylpyridin-3-yl)butan-2-ol]
[1]
  MIC: 0.99 µg/mL (≈ 1.8 µM)
[2]
  MIC: ≤ 0.0625 µg/mL
[3]; [6]
  MIC: 0.96 µg/mL
[4]
  IC50: 25.7 µg/mL (≈ 46.8 µM)
[5]
  CC50: 10.3 µg/mL (≈ 18.7 µM)

## COc1ncc(-c2cscn2)cc1C(c1ccccc1)C(O)(CCN(C)C)c1cccc2ccccc12 (centres unmarked) [Compound 161, 4-(dimethylamino)-1-(2-methoxy-5-(thiazol-4-yl)pyridin-3-yl)-2-(naphthalen-1-yl)-1-phenylbutan-2-ol]
[1]
  MIC: 4.24 µg/mL (≈ 8.32 µM)
[2]
  MIC: 0.125 µg/mL
[3]; [6]
  MIC: 1.6 µg/mL
[4]
  IC50: 25.1 µg/mL (≈ 49.1 µM)
[5]
  CC50: 14.4 µg/mL (≈ 28.3 µM)

## COc1ncc(-c2ccccc2)cc1C(c1ccccc1)C(O)(CCN(C)C)c1cccc2ccccc12 (centres unmarked) [Compound 9, 4-(dimethylamino)-1-(2-methoxy-5-phenylpyridin-3-yl)-2-(naphthalen-1-yl)-1-phenylbutan-2-ol]
[1]
  MIC: 0.72 µg/mL (≈ 1.43 µM)
[2]
  MIC: 0.0312 µg/mL
[3]; [6]
  MIC: 1.08 µg/mL
[3]; [7]
  MIC: 0.46 µM
[3]; wild-type H37Rv strain, two values per compound
  MABA MIC vs. H37Rv: 0.36 µM
[4]
  IC50: > 50 µg/mL
[5]
  CC50: 30.4 µg/mL (≈ 60.4 µM)

## COc1ncc(N2CCOCC2)cc1C(c1ccccc1)C(O)(CCN(C)C)c1cccc2ccccc12 (centres unmarked) [Compound 269, 4-(dimethylamino)-1-(2-methoxy-5-morpholinopyridin-3-yl)-2-(naphthalen-1-yl)-1-phenylbutan-2-ol]
[1]
  MIC: 6.3 µg/mL (≈ 12.3 µM)
[2]
  MIC: 0.25 µg/mL
[3]; [6]
  MIC: 5.64 µg/mL
[4]
  IC50: > 32 µg/mL
[5]
  CC50: 17.4 µg/mL (≈ 34.1 µM)

## COc1ncc(-c2cccnc2)cc1C(c1ccccc1)C(O)(CCN(C)C)c1cccc2ccccc12 (centres unmarked) [Compound 19, 4-(dimethylamino)-1-(6-methoxy-[3,3′-bipyridin]-5-yl)-2-(naphthalen-1-yl)-1-phenylbutan-2-ol]
[1]
  MIC: 3.11 µg/mL (≈ 6.17 µM)
[2]
  MIC: 0.5 µg/mL
[3]; [6]
  MIC: 2.85 µg/mL
[4]
  IC50: > 50 µg/mL
[5]
  CC50: 10.3 µg/mL (≈ 20.4 µM)

## COc1ncc(-c2ccc(Cl)cc2)cc1C(c1ccccc1)C(O)(CCN(C)C)c1cc(F)cc(F)c1 (centres unmarked) [Compound 280, 1-(5-(4-chlorophenyl)-2-methoxypyridin-3-yl)-2-(3,5-difluorophenyl)-4-dimethylamino-1-phenylbutan-2-ol]
[1]
  MIC: 0.16 µg/mL (≈ 0.306 µM)
[2]
  MIC: 0.0156 µg/mL
[3]; [6]
  MIC: 0.04 µg/mL
[4]
  IC50: > 32 µg/mL
[5]
  CC50: 35 µg/mL (≈ 66.9 µM)

## COc1ncc(-c2nccs2)cc1C(c1ccccc1)C(O)(CCN(C)C)c1cccc2ccccc12 (centres unmarked) [Compound 169, 4-(dimethylamino)-1-(2-methoxy-5-(thiazol-2-yl)pyridin-3-yl)-2-(naphthalen-1-yl)-1-phenylbutan-2-ol]
[1]
  MIC: 4.95 µg/mL (≈ 9.71 µM)
[2]
  MIC: 0.25 µg/mL
[3]; [6]
  MIC: 1.73 µg/mL
[4]
  IC50: 25.9 µg/mL (≈ 50.7 µM)
[5]
  CC50: 19.3 µg/mL (≈ 37.8 µM)

## COc1ncc(C#Cc2ccccc2)cc1C(c1ccccc1)C(O)(CCN(C)C)c1cccc2ccccc12 (centres unmarked) [Compound 337, 4-(dimethylamino)-1-[2-methoxy-5-(2-phenylethynyl)-3-pyridyl]-2-(1-naphthyl)-1-phenyl-butan-2-ol]
[1]
  MIC: 1.51 µg/mL (≈ 2.87 µM)
[2]
  MIC: 0.25 µg/mL
[3]; [6]
  MIC: 0.14 µg/mL
[4]
  IC50: > 32 µg/mL
[5]
  CC50: > 64 µg/mL

## COc1ncc(-c2ccc(Cl)c(F)c2)cc1C(c1ccccc1)C(O)(CCN(C)C)c1cccc2ccccc12 (centres unmarked) [Compound 303, 1-(5-(4-chloro-3-fluorophenyl)-2-methoxypyridin-3-yl)-4-(dimethylamino)-2-(naphthalen-1-yl)-1-phenylbutan-2-ol]
[1]
  MIC: 0.52 µg/mL (≈ 0.937 µM)
[2]
  MIC: 0.0312 µg/mL
[3]; [6]
  MIC: 0.19 µg/mL
[4]
  IC50: > 32 µg/mL
[5]
  CC50: > 64 µg/mL

## COc1ncc(-c2ccccc2)cc1C(c1ccccc1)C(O)(CCN(C)C)c1cccc(F)c1F (centres unmarked) [Compound 31, 2-(2,3-difluorophenyl)-4-(dimethylamino)-1-(2-methoxy-5-phenylpyridin-3-yl)-1-phenylbutan-2-ol]
[1]
  MIC: 0.46 µg/mL (≈ 0.942 µM)
[2]
  MIC: 0.25 µg/mL
[3]; [6]
  MIC: 0.58 µg/mL
[4]
  IC50: > 50 µg/mL
[5]
  CC50: 28.1 µg/mL (≈ 57.5 µM)

## COc1nc(OC)c(C(c2ccccc2)C(O)(CCN(C)C)c2cccc3ccccc23)cc1-c1ccc(Cl)cc1 (single isomer, unassigned) [Compound 401, 1-(5-(4-chlorophenyl)-2,6-dimethoxypyridin-3-yl)-4-(dimethylamino)-2-(naphthalen-1-yl)-1-phenylbutan-2-ol]
[1]
  MIC: 0.19 µg/mL (≈ 0.335 µM)
[2]
  MIC: 0.0312 µg/mL
[3]; [6]
  MIC: 0.05 µg/mL
[4]
  IC50: > 32 µg/mL
[5]
  CC50: > 64 µg/mL
